Test system: Jurkat
Assay: Cytotoxicity against human Jurkat cells
Type: functional, cell-based

Compound	IC50
COc1ccc(C(=O)c2coc3c(Br)cc(O)c(Br)c23)cc1	8 µM
COc1ccc(C(=O)c2coc3c(Br)c(Br)c(O)cc23)cc1	100 µM
COc1ccc(C(=O)c2coc3c(Cl)c(Cl)c(O)cc23)cc1	100 µM
COc1ccc(C(=O)c2coc3c(Cl)c(Cl)c(O)cc23)cc1OC	100 µM
O=C(c1ccccc1)c1coc2c(Cl)c(Cl)c(O)cc12	100 µM
COc1cc(C(=O)c2coc3c(Br)c(Br)c(O)cc23)cc(OC)c1OC	62 µM

Test system: not listed separately
Assay: Cytotoxicity against human CWR22 cells
Type: functional, cell-based

Compound	IC50
COc1ccc(C(=O)c2coc3c(Br)cc(O)c(Br)c23)cc1	57 µM
COc1ccc(C(=O)c2coc3c(Br)c(Br)c(O)cc23)cc1	100 µM
COc1ccc(C(=O)c2coc3c(Cl)c(Cl)c(O)cc23)cc1	100 µM
COc1ccc(C(=O)c2coc3c(Cl)c(Cl)c(O)cc23)cc1OC	100 µM
O=C(c1ccccc1)c1coc2c(Cl)c(Cl)c(O)cc12	100 µM
COc1cc(C(=O)c2coc3c(Br)c(Br)c(O)cc23)cc(OC)c1OC	100 µM

Test system: HL-60
Assay: Cytotoxicity against human vincristine-resistant HL60 cells
Type: functional, cell-based

Compound	IC50
COc1ccc(C(=O)c2coc3c(Br)cc(O)c(Br)c23)cc1	40 µM
COc1ccc(C(=O)c2coc3c(Br)c(Br)c(O)cc23)cc1	100 µM
COc1ccc(C(=O)c2coc3c(Cl)c(Cl)c(O)cc23)cc1	100 µM
COc1ccc(C(=O)c2coc3c(Cl)c(Cl)c(O)cc23)cc1OC	100 µM
O=C(c1ccccc1)c1coc2c(Cl)c(Cl)c(O)cc12	100 µM
COc1cc(C(=O)c2coc3c(Br)c(Br)c(O)cc23)cc(OC)c1OC	100 µM

Biological target: T1, Aminopeptidase N (Sus scrofa) (UniProt P15145)
T1 sequence (whole entry): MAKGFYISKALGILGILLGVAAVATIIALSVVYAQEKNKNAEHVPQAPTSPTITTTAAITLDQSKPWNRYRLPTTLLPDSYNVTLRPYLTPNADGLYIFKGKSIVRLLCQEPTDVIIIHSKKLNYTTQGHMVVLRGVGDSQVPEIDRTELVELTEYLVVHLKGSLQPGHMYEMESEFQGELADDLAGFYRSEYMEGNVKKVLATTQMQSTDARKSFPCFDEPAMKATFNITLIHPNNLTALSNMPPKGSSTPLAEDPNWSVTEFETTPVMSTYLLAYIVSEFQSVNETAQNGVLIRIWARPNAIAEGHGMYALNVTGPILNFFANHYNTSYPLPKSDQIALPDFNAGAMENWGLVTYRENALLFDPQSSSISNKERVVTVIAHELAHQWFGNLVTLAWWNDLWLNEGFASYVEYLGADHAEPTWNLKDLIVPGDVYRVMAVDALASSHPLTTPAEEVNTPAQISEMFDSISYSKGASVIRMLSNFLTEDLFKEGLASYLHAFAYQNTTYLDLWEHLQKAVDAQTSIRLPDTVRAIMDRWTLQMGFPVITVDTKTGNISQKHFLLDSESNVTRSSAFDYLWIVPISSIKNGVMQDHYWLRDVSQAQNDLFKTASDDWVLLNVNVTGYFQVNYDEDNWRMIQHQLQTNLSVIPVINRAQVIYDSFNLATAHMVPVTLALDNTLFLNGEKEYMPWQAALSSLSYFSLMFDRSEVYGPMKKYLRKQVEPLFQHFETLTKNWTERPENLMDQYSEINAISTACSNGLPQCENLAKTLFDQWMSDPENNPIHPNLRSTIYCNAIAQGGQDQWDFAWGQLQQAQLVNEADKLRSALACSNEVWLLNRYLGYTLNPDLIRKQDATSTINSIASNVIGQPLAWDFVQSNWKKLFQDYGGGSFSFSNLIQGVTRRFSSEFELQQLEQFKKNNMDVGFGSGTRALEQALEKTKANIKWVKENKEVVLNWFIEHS
Assay: Inhibition of porcine kidney microsomal aminopeptidase N at 100 uM after 1 hr by fluorescence polarization based competition assay

Compound	inhibition
COc1ccc(C(=O)c2coc3c(Br)cc(O)c(Br)c23)cc1	0%
COc1ccc(C(=O)c2coc3c(Br)c(Br)c(O)cc23)cc1	0%
COc1ccc(C(=O)c2coc3c(Cl)c(Cl)c(O)cc23)cc1	0%
COc1ccc(C(=O)c2coc3c(Cl)c(Cl)c(O)cc23)cc1OC	0%
O=C(c1ccccc1)c1coc2c(Cl)c(Cl)c(O)cc12	6%
COc1cc(C(=O)c2coc3c(Br)c(Br)c(O)cc23)cc(OC)c1OC	10%

Test system: Y79
Assay: Cytotoxicity against human Y79 cells
Type: functional, cell-based

Compound	IC50
COc1ccc(C(=O)c2coc3c(Br)cc(O)c(Br)c23)cc1	64 µM
COc1ccc(C(=O)c2coc3c(Br)c(Br)c(O)cc23)cc1	100 µM
COc1ccc(C(=O)c2coc3c(Cl)c(Cl)c(O)cc23)cc1	100 µM
COc1ccc(C(=O)c2coc3c(Cl)c(Cl)c(O)cc23)cc1OC	100 µM
O=C(c1ccccc1)c1coc2c(Cl)c(Cl)c(O)cc12	100 µM
COc1cc(C(=O)c2coc3c(Br)c(Br)c(O)cc23)cc(OC)c1OC	100 µM

Biological target: T2, Peptide deformylase (Escherichia coli) (UniProt Q9JN24)
T2 sequence (whole entry): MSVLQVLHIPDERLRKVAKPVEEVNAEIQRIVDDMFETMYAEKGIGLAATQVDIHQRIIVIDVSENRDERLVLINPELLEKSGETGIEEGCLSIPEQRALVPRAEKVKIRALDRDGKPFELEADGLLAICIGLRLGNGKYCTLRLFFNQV
Assay: Inhibition of Escherichia coli peptide deformylase at 100 uM after 1 hr by fluorescence polarization based competition assay

Compound	inhibition
COc1ccc(C(=O)c2coc3c(Br)cc(O)c(Br)c23)cc1	0%
COc1ccc(C(=O)c2coc3c(Br)c(Br)c(O)cc23)cc1	3%
COc1ccc(C(=O)c2coc3c(Cl)c(Cl)c(O)cc23)cc1	0%
COc1ccc(C(=O)c2coc3c(Cl)c(Cl)c(O)cc23)cc1OC	0%
O=C(c1ccccc1)c1coc2c(Cl)c(Cl)c(O)cc12	1%
COc1cc(C(=O)c2coc3c(Br)c(Br)c(O)cc23)cc(OC)c1OC	7%

Test system: not listed separately
Assay: Cytotoxicity against human Meso47 cells
Type: functional, cell-based

Compound	IC50
COc1ccc(C(=O)c2coc3c(Br)cc(O)c(Br)c23)cc1	100 µM
COc1ccc(C(=O)c2coc3c(Br)c(Br)c(O)cc23)cc1	100 µM
COc1ccc(C(=O)c2coc3c(Cl)c(Cl)c(O)cc23)cc1	100 µM
COc1ccc(C(=O)c2coc3c(Cl)c(Cl)c(O)cc23)cc1OC	100 µM
O=C(c1ccccc1)c1coc2c(Cl)c(Cl)c(O)cc12	100 µM
COc1cc(C(=O)c2coc3c(Br)c(Br)c(O)cc23)cc(OC)c1OC	100 µM

Test system: not listed separately
Assay: Cytotoxicity against human ALL3 cells
Type: functional, cell-based

Compound	IC50
COc1ccc(C(=O)c2coc3c(Br)cc(O)c(Br)c23)cc1	68 µM
COc1ccc(C(=O)c2coc3c(Br)c(Br)c(O)cc23)cc1	100 µM
COc1ccc(C(=O)c2coc3c(Cl)c(Cl)c(O)cc23)cc1	100 µM
COc1ccc(C(=O)c2coc3c(Cl)c(Cl)c(O)cc23)cc1OC	100 µM
O=C(c1ccccc1)c1coc2c(Cl)c(Cl)c(O)cc12	100 µM
COc1cc(C(=O)c2coc3c(Br)c(Br)c(O)cc23)cc(OC)c1OC	60 µM

Test system: HEK293
Assay: Cytotoxicity against human HEK293 cells
Type: cell-based

Compound	IC50
COc1ccc(C(=O)c2coc3c(Br)cc(O)c(Br)c23)cc1	10 µM
COc1ccc(C(=O)c2coc3c(Br)c(Br)c(O)cc23)cc1	100 µM
COc1ccc(C(=O)c2coc3c(Cl)c(Cl)c(O)cc23)cc1	100 µM
COc1ccc(C(=O)c2coc3c(Cl)c(Cl)c(O)cc23)cc1OC	100 µM
O=C(c1ccccc1)c1coc2c(Cl)c(Cl)c(O)cc12	100 µM
COc1cc(C(=O)c2coc3c(Br)c(Br)c(O)cc23)cc(OC)c1OC	100 µM

Biological target: T3, Peptide deformylase, mitochondrial (Homo sapiens) (UniProt Q9HBH1)
T3 sequence (whole entry): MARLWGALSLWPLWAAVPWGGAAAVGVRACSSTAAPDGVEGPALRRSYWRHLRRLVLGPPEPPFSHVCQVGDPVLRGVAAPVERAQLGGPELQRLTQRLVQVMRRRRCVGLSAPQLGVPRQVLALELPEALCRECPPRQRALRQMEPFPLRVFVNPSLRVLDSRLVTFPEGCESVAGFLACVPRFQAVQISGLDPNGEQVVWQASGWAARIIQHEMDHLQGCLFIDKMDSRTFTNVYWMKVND
Assay: Inhibition of human peptide deformylase at 100 uM after 1 hr by fluorescence polarization based competition assay

Compound	inhibition
COc1ccc(C(=O)c2coc3c(Br)cc(O)c(Br)c23)cc1	0%
COc1ccc(C(=O)c2coc3c(Br)c(Br)c(O)cc23)cc1	0%
COc1ccc(C(=O)c2coc3c(Cl)c(Cl)c(O)cc23)cc1	13%
COc1ccc(C(=O)c2coc3c(Cl)c(Cl)c(O)cc23)cc1OC	0%
O=C(c1ccccc1)c1coc2c(Cl)c(Cl)c(O)cc12	24%
COc1cc(C(=O)c2coc3c(Br)c(Br)c(O)cc23)cc(OC)c1OC	5%

Test system: MOLT-3
Assay: Cytotoxicity against human MOLT3 cells
Type: functional, cell-based

Compound	IC50
COc1ccc(C(=O)c2coc3c(Br)cc(O)c(Br)c23)cc1	10 µM
COc1ccc(C(=O)c2coc3c(Br)c(Br)c(O)cc23)cc1	100 µM
COc1ccc(C(=O)c2coc3c(Cl)c(Cl)c(O)cc23)cc1	100 µM
COc1ccc(C(=O)c2coc3c(Cl)c(Cl)c(O)cc23)cc1OC	100 µM
O=C(c1ccccc1)c1coc2c(Cl)c(Cl)c(O)cc12	100 µM
COc1cc(C(=O)c2coc3c(Br)c(Br)c(O)cc23)cc(OC)c1OC	100 µM

Biological target: T4, Interstitial collagenase (Homo sapiens) (UniProt P03956)
T4 sequence (whole entry): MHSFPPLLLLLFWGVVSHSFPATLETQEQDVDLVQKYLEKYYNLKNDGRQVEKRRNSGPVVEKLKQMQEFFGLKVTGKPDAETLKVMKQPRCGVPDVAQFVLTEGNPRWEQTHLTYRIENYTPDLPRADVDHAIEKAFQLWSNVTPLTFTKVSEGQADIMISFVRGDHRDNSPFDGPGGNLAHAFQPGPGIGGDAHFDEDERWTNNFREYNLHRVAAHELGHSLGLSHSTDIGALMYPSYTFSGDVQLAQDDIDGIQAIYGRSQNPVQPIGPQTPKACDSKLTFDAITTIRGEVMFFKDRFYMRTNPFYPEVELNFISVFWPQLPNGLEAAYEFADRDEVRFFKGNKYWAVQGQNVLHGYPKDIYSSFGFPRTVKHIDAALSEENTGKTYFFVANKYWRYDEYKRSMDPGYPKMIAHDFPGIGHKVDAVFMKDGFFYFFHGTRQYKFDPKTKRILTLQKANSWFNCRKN
Assay: Inhibition of human recombinant MMP1 at 100 uM after 1 hr by fluorescence polarization based competition assay

Compound	inhibition
COc1ccc(C(=O)c2coc3c(Br)cc(O)c(Br)c23)cc1	0%
COc1ccc(C(=O)c2coc3c(Br)c(Br)c(O)cc23)cc1	2%
COc1ccc(C(=O)c2coc3c(Cl)c(Cl)c(O)cc23)cc1	14%
COc1ccc(C(=O)c2coc3c(Cl)c(Cl)c(O)cc23)cc1OC	0%
O=C(c1ccccc1)c1coc2c(Cl)c(Cl)c(O)cc12	0%
COc1cc(C(=O)c2coc3c(Br)c(Br)c(O)cc23)cc(OC)c1OC	0%

Test system: HL-60
Assay: Cytotoxicity against human HL60 cells
Type: functional, cell-based

Compound	IC50
COc1ccc(C(=O)c2coc3c(Br)cc(O)c(Br)c23)cc1	9 µM
COc1ccc(C(=O)c2coc3c(Br)c(Br)c(O)cc23)cc1	100 µM
COc1ccc(C(=O)c2coc3c(Cl)c(Cl)c(O)cc23)cc1	100 µM
COc1ccc(C(=O)c2coc3c(Cl)c(Cl)c(O)cc23)cc1OC	100 µM
O=C(c1ccccc1)c1coc2c(Cl)c(Cl)c(O)cc12	100 µM
COc1cc(C(=O)c2coc3c(Br)c(Br)c(O)cc23)cc(OC)c1OC	79 µM

From ChEMBL document CHEMBL1806384, “Identification of benzofuran-4,5-diones as novel and selective non-hydroxamic acid, non-peptidomimetic based inhibitors of human peptide deformylase” (Bioorg Med Chem Lett, 2011)
